According to patent US11639929B2, “Universal histidine-tag binding compounds and methods of use thereof as fluorescent probes and sensors” (YEDA RESEARCH AND DEVELOPMENT CO. LTD., priority 2014, dated 2023):

Tests used:
His-CaM(Ca^+2) [1] = molecular target: T1, His-CaM(Ca^+2) (Mus musculus, UniProt P0DP26); test: Surface plasmon resonance on immobilized His-CaM with Ca2+; type: binding; details: SPR, Table 2, CaCl2 0.3 mM; read-out: Dissociation constant
T1 construct: purchased Israel Structural Proteomics Center (Weizmann Institute of Science)
Experimental: SPR experiments were performed to assess the dissociation constant between His-CaM and the compound 1 in the presence/absence of Ca^2+ ions and other ligands. His-CaM was diluted in 180 μL PBS buffer (4.1 mM, pH=7.3) and 20 μL sodium acetate (1 M, pH=3) to reach a final concentration of 20 μg/mL and then immobilized on a Biacore sensor chip CM5 through EDC/NHS chemistry. Flow cells were activated for 5 min by injecting 50 μL mixture of 50 mM NHS:200 mM EDC. Then 50 μL of His-CaM (20 μg/mL) was injected at a rate of 10 μL/min followed by injection of ethanolamine (1 M) to block the remaining surface-activated groups. Various analytes (Table 1) were injected in different concentrations, ranging from 0.1-2 μM for (20 μL/min, 80 μL injection with a delay of 180 s wash) (Table 1). Between consecutive analyte injections, the surface was regenerated with 2 mM NaOH (20 μL at 10 μL/min) followed by PBS buffer (60 μL at 10 μL/min). Non-derivatized dextran matrix flow cells served as reference cells. […] CaCl2 (0.3 mM) was pre-incubated with the analyte before injections. For the control compound C15 (entry 5), prior to each injection, the chip was washed with 20 μL EDTA (50 mM, 20 μL/min) followed by PBS buffer (20 μL at 20 μL/min) to remove any traces of Ni^2+. The data were globally fitted using BiaEvaluation software 3.2.

His-Bcl-2 = molecular target: T2, His-Bcl-2 (Homo sapiens, UniProt P10415); test: Probing protein-protein interactions for Bcl-2 with the His-Bcl-2-5 complex; type: binding; details: complex 200 nM
T2 construct: purchased ProSpec-Tany TechnoGene Ltd. (Ness Ziona, Israel)
Experimental: Compounds 1-5 (50 μL, 10 μM) in phosphate buffer (4.1 mM, pH=7.3) were dispensed into a 384-well plate and fluorescence intensities were recorded with an excitation wavelength of 330 nm. His-Bcl-2 (final concentration, 200 nM) and Bax BH3 (final concentration, 1.6 μM) were subsequently added to each well and the fluorescence intensity values were recorded again. The emission values correspond to the maximal intensities recorded either at λem=530 nm or at λem=560 nm. Fluorescence was measured in triplicate. Data shown in FIG. 27 is the average of the triplicates and error bars represent standard deviation. Control experiments were performed in a similar manner (FIG. 28).
A mixture of compound 5 (200 nM) and His-Bcl-2 (200 nM) in PBS buffer (4.1 mM, pH=7.3) was dispensed into a 384-well microplate, and the fluorescence emission spectra were recorded. Various proteins (0.8 μM) and Bax BH3 peptide (0.8 μM) were added and the fluorescence emission was again recorded. Fluorescence measurements were performed in triplicate. The emission intensities before the addition of each protein were normalized to 100% (FIG. 27b).

His-CaM(Ca^+2) [2] = molecular target: T1, His-CaM(Ca^+2); test: Screening assay with small molecules and peptide inhibitors using the His-CaM(Ca+2)-1 complex; details: test substance 1.6 μM; decrease indicates binding to the CaM surface
Experimental: A mixture of compound 1 (200 nM), His-CaM (400 nM), and CaCl2 (0.3 mM) in PBS buffer (4.1 mM, pH=7.3) was dispensed into a 384-well microplate, and fluorescence emission spectra were recorded. Then various drugs (1.6 μM) and peptides (1.6 μM) were added and the fluorescence emission was again recorded. Fluorescence measurements were performed in triplicate and the emission intensities before the addition of each drug were normalized to 100% (FIG. 24).

[3] = system: E. coli expressing His-OmpC; test: Decorating bacteria with oligonucleotides, fluorescence microscopy; type: cell-based; details: 500 nM with Ni(II)
Experimental: Transformed bacteria with the different OmpC constructs (OmpC or His-OmpC) were cultured to saturation in LB medium supplemented with 100 μg/ml of ampicillin at 30° C. 40 μl of the pre-cultured cells were then diluted into 4 ml of fresh LB medium supplemented with ampicillin and incubated until the OD600 reaches ˜0.6. Protein expression was then induced by the addition of 0.1% Rhamnose and 20 μM isopropyl-b-D-1-thiogalactopyranoside (IPTG) and cultures were allowed to grow at 30° C. for 18 h.
The bacterial cells (OmpC or His-OmpC) were collected by centrifugation at 6000 g for 4 min. The pellet was washed twice with PBS×1 buffer and resuspended in the same buffer to an OD600 of 0.3. To a 100 μl sample of the bacteria suspension, a preincubated sample of DNA (500 nM) and NiCl2 (2.5 μM) was added, and the cells were incubated at room temperature for 1 h. Then the bacterial sample were washed twice with PBS, resuspended in 100 μl PBS and placed on a glass-bottom dish (P35G-1.5-14-C; MatTek) precoated with poly-1-lysine (Sigma Aldrich) and left to adhere for 1 h. Finally, the wells were washed vigorously with PBS three times and imaged using an Olympus IX51 fluorescent microscope. The samples were imaged using 60× or 100× objective lenses. […]

T2 sequence (P10415 whole entry): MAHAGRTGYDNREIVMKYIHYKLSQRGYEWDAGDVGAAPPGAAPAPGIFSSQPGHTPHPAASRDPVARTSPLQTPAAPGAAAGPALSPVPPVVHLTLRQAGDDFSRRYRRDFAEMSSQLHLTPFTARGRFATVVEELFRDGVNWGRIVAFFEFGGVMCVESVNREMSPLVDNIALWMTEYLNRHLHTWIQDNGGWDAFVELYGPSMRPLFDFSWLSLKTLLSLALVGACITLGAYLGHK

| Compound | Kd (His-CaM(Ca^+2) [1]) [nM] | emission signal of the His-Bcl-2-5 complex after addition of protein or peptide (His-Bcl-2) | fluorescence emission of the His-CaM(Ca+2)-1 complex after addition of drug or peptide (His-CaM(Ca^+2) [2]) | fluorescent labeling of bacteria, fluorescence imaging [3] |
| --- | --- | --- | --- | --- |
| CC[C@H](C)[C@H](NC(=O)[C@H](Cc1ccccc1)NC(=O)[C@H](CC(N)=O)NC(=O)[C@H](CCCCN)NC(=O)[C@H](CCCCN)NC(=O)[C@H](Cc1c[nH]c2ccccc12)NC(=O)[C@H](CCCNC(=N)N)NC(=O)[C@H](CCCNC(=N)N)NC(=O)[C@@H](N)CCCCN)C(=O)N[C@@H](C)C(=O)N[C@H](C(=O)N[C@@H](CO)C(=O)N[C@@H](C)C(=O)N[C@@H](C)C(=O)N[C@@H](CC(N)=O)C(=O)N[C@@H](CCCNC(=N)N)C(=O)N[C@@H](Cc1ccccc1)C(=O)N[C@@H](CCCCN)C(=O)N[C@@H](CCCCN)C(=O)N[C@H](C(=O)N[C@@H](CO)C(=O)N[C@@H](CO)C(=O)N[C@@H](CO)C(=O)NCC(=O)N[C@@H](C)C(=O)N[C@@H](CC(C)C)C(=O)O)[C@@H](C)CC)C(C)C [Compound M13] | 8.8 | did not change the emission signal | – | – |
| Clc1ccc(C(c2ccc(Cl)cc2)n2cc[n+](CC(OCc3ccc(Cl)cc3Cl)c3ccc(Cl)cc3Cl)c2)cc1 (stereo not shown) [calmidazolium] | – | – | decrease in the fluorescence emission | – |
| Bax-BH3: amphipathic alpha helical peptide of Bax, Bax BH3 peptide (55-74) wild type (STKKLSECLKRIGDELDSNM) | – | decreased | – | – |
| Cy5-labeled ODN: Cy5-labeled ODN lacking a tri-NTA group, negative control (DNA GCGGCGAGGCAGC; Cy5 label, position not given here) | – | – | – | No fluorescence |
| Mastoparan | – | did not change the emission signal | decrease in the fluorescence emission | – |
